# Laboratory results: PubChem BioAssay (NCI)
#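 The compound was tested at five concentrations on cells cultured in 96-well plates, with a 48-hour exposure period. Abbreviation: GI50, concentration required for 50% inhibition of growth. TGI: concentration producing complete growth inhibition.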
# Key:
# Test in all cases: NCI anticancer screen, dose series, 48 h
# [1] = system: 786-0 renal
# [2] = system: A549 NSCLC
# [3] = system: BT-549 breast
# [4] = system: CAKI-1 renal
# [5] = system: CCRF-CEM leukemia
# [6] = system: EKVX NSCLC
# [7] = system: HCC-2998 colon
# [8] = system: HCT-116 colon
# [9] = system: HCT-15 colon
# [10] = system: HL-60(TB) leukemia
# [11] = system: HOP-62 NSCLC
# [12] = system: HOP-92 NSCLC
# [13] = system: HS 578T breast
# [14] = system: HT29 colon
# [15] = system: IGROV1 ovarian
# [16] = system: K-562 leukemia
# [17] = system: LOX IMVI melanoma
# [18] = system: M14 melanoma
# [19] = system: MALME-3M melanoma
# [20] = system: MDA-MB-435
# [21] = system: MDA-N
# [22] = system: MOLT-4 leukemia
# [23] = system: NCI-H23 lung
# [24] = system: NCI-H460 lung
# [25] = system: NCI-H522 lung
# [26] = system: NCI/ADR-RES ovarian
# [27] = system: OVCAR-3 ovarian
# [28] = system: OVCAR-5 ovarian
# [29] = system: OVCAR-8 ovarian
# [30] = system: RPMI-8226 leukemia
# [31] = system: SF-268 CNS
# [32] = system: SF-295 CNS
# [33] = system: SK-OV-3 ovarian
# [34] = system: SN12C renal
# [35] = system: SNB-19 CNS
# [36] = system: SR leukemia
# [37] = system: SW-620 colon
# [38] = system: TK-10 renal
# [39] = system: UACC-257 melanoma
# [40] = system: UO-31 renal
# [41] = system: A498 renal
# [42] = system: ACHN renal
# [43] = system: COLO 205 colon
# [44] = system: DU-145 prostate
# [45] = system: KM12 colon
# [46] = system: MCF7 breast
# [47] = system: MDA-MB-231 breast
# [48] = system: NCI-H226 lung
# [49] = system: OVCAR-4 ovarian
# [50] = system: PC-3 prostate
# [51] = system: RXF 393 renal
# [52] = system: SF-539 CNS
# [53] = system: SK-MEL-2 melanoma
# [54] = system: SK-MEL-28 melanoma
# [55] = system: SK-MEL-5 melanoma
# [56] = system: SNB-75 CNS
# [57] = system: U251 CNS
# [58] = system: UACC-62 melanoma
# [59] = system: T-47D breast
smiles,measurement,setting,value
COc1ccc2c3c1O[C@H]1C(OC)C=CC4C(C2)N(Cc2cccs2)CCC341 (some centres not stated),TGI,[1],> 100 µM
same,TGI,[2],> 100 µM
same,TGI,[3],> 100 µM
same,TGI,[4],> 100 µM
same,TGI,[5],> 100 µM
same,TGI,[6],> 100 µM
same,TGI,[7],> 100 µM
same,TGI,[8],> 100 µM
same,TGI,[9],> 100 µM
same,TGI,[10],> 100 µM
same,TGI,[11],> 100 µM
same,TGI,[12],> 100 µM
same,TGI,[13],> 100 µM
same,TGI,[14],> 100 µM
same,TGI,[15],> 100 µM
same,TGI,[16],> 100 µM
same,TGI,[17],> 100 µM
same,TGI,[18],> 100 µM
same,TGI,[19],> 100 µM
same,TGI,[20],> 100 µM
same,TGI,[21],> 100 µM
same,TGI,[22],> 100 µM
same,TGI,[23],> 100 µM
same,TGI,[24],> 100 µM
same,TGI,[25],> 100 µM
same,TGI,[26],> 100 µM
same,TGI,[27],> 100 µM
same,TGI,[28],> 100 µM
same,TGI,[29],> 100 µM
same,TGI,[30],> 100 µM
same,TGI,[31],> 100 µM
same,TGI,[32],> 100 µM
same,TGI,[33],> 100 µM
same,TGI,[34],> 100 µM
same,TGI,[35],> 100 µM
same,TGI,[36],> 100 µM
same,TGI,[37],> 100 µM
same,TGI,[38],> 100 µM
same,TGI,[39],> 100 µM
same,TGI,[40],> 100 µM
COc1ccc(-n2c(=O)[nH]n(C(C)=O)c2=O)cc1,TGI,[1],> 100 µM
same,TGI,[41],> 100 µM
same,TGI,[2],> 100 µM
same,TGI,[42],> 100 µM
same,TGI,[4],> 100 µM
same,TGI,[5],> 100 µM
same,TGI,[43],> 100 µM
same,TGI,[44],> 100 µM
same,TGI,[6],> 100 µM
same,TGI,[8],> 100 µM
same,TGI,[9],> 100 µM
same,TGI,[10],> 100 µM
same,TGI,[12],> 100 µM
same,TGI,[13],> 100 µM
same,TGI,[14],> 100 µM
same,TGI,[15],> 100 µM
same,TGI,[16],> 100 µM
same,TGI,[45],> 100 µM
same,TGI,[17],> 100 µM
same,TGI,[18],> 100 µM
same,TGI,[19],> 100 µM
same,TGI,[46],> 100 µM
same,TGI,[47],> 100 µM
same,TGI,[20],> 100 µM
same,TGI,[21],> 100 µM
same,TGI,[22],> 100 µM
same,TGI,[48],> 100 µM
same,TGI,[23],> 100 µM
same,TGI,[24],> 100 µM
same,TGI,[25],> 100 µM
same,TGI,[26],> 100 µM
same,TGI,[49],> 100 µM
same,TGI,[28],> 100 µM
same,TGI,[29],> 100 µM
same,TGI,[50],> 100 µM
same,TGI,[30],> 100 µM
same,TGI,[51],> 100 µM
same,TGI,[31],> 100 µM
same,TGI,[32],> 100 µM
same,TGI,[52],> 100 µM
same,TGI,[53],> 100 µM
same,TGI,[54],> 100 µM
same,TGI,[55],> 100 µM
same,TGI,[34],> 100 µM
same,TGI,[35],> 100 µM
same,TGI,[56],> 100 µM
same,TGI,[36],> 100 µM
same,TGI,[37],> 100 µM
same,TGI,[38],> 100 µM
same,TGI,[57],> 100 µM
same,TGI,[39],> 100 µM
same,TGI,[58],> 100 µM
same,TGI,[40],> 100 µM
O=S(=O)(Nc1ccc(Br)c(Cl)c1)c1ccc(-c2cnc(C3CC3)o2)cc1,GI50,[1],0.574 µM
same,TGI,[1],17.9 µM
same,GI50,[41],0.189 µM
same,TGI,[41],0.845 µM
same,GI50,[2],0.789 µM
same,TGI,[2],18.3 µM
same,GI50,[42],0.562 µM
same,TGI,[42],18.2 µM
same,GI50,[3],0.682 µM
same,TGI,[3],17.8 µM
same,GI50,[4],0.431 µM
same,TGI,[4],16.4 µM
same,GI50,[5],0.411 µM
same,TGI,[5],> 45.9 µM
same,GI50,[43],0.765 µM
same,TGI,[43],11.3 µM
same,GI50,[44],1.52 µM
same,TGI,[44],17.6 µM
same,GI50,[6],2.07 µM
same,TGI,[6],21 µM
same,GI50,[7],1.61 µM
same,TGI,[7],11.6 µM
same,GI50,[8],0.432 µM
same,TGI,[8],13.6 µM
same,GI50,[9],0.445 µM
same,TGI,[9],13.7 µM
same,GI50,[10],0.303 µM
same,TGI,[10],4.96 µM
same,GI50,[11],0.58 µM
same,TGI,[11],19 µM
same,GI50,[12],0.487 µM
same,TGI,[12],8.72 µM
same,GI50,[13],0.351 µM
same,TGI,[13],18.3 µM
same,GI50,[14],0.356 µM
same,TGI,[14],5.23 µM
same,GI50,[15],0.577 µM
same,TGI,[15],14.8 µM
same,GI50,[16],0.323 µM
same,TGI,[16],> 100 µM
same,GI50,[45],0.445 µM
same,TGI,[45],14.9 µM
same,GI50,[17],0.565 µM
same,TGI,[17],16.2 µM
same,GI50,[18],0.458 µM
same,TGI,[18],14.1 µM
same,GI50,[46],0.339 µM
same,TGI,[46],16 µM
same,GI50,[47],1.91 µM
same,TGI,[47],16.4 µM
same,GI50,[20],0.177 µM
same,TGI,[20],2.45 µM
same,GI50,[22],0.688 µM
same,TGI,[22],> 50.4 µM
same,GI50,[48],1.23 µM
same,TGI,[48],18.8 µM
same,GI50,[23],1.27 µM
same,TGI,[23],15.6 µM
same,GI50,[24],0.415 µM
same,TGI,[24],12.6 µM
same,GI50,[25],0.262 µM
same,TGI,[25],10.7 µM
same,GI50,[26],0.43 µM
same,TGI,[26],6.86 µM
same,GI50,[27],0.37 µM
same,TGI,[27],7.32 µM
same,GI50,[49],2.67 µM
same,TGI,[49],21.9 µM
same,GI50,[28],1.97 µM
same,TGI,[28],14.1 µM
same,GI50,[29],1.5 µM
same,TGI,[29],21.4 µM
same,GI50,[50],0.493 µM
same,TGI,[50],14.8 µM
same,GI50,[30],0.585 µM
same,TGI,[30],64.8 µM
same,GI50,[51],0.348 µM
same,TGI,[51],3.48 µM
same,GI50,[31],1.56 µM
same,TGI,[31],23.5 µM
same,GI50,[32],0.343 µM
same,TGI,[32],3.41 µM
same,GI50,[52],0.374 µM
same,TGI,[52],5.08 µM
same,GI50,[53],2.45 µM
same,TGI,[53],24 µM
same,GI50,[54],4.35 µM
same,TGI,[54],22 µM
same,GI50,[55],0.602 µM
same,TGI,[55],13.9 µM
same,GI50,[33],1.49 µM
same,TGI,[33],24.2 µM
same,GI50,[34],1.27 µM
same,TGI,[34],16 µM
same,GI50,[35],0.517 µM
same,TGI,[35],16.2 µM
same,GI50,[56],0.196 µM
same,TGI,[56],0.662 µM
same,GI50,[36],0.38 µM
same,TGI,[36],> 49.4 µM
same,GI50,[37],0.392 µM
same,TGI,[37],15.4 µM
same,GI50,[59],0.437 µM
same,TGI,[59],21.1 µM
same,GI50,[38],2.89 µM
same,TGI,[38],20.6 µM
same,GI50,[57],0.507 µM
same,TGI,[57],15.4 µM
same,GI50,[39],2.08 µM
same,TGI,[39],25.9 µM
same,GI50,[58],0.372 µM
same,TGI,[58],13.6 µM
same,GI50,[40],1.11 µM
same,TGI,[40],13.6 µM
